Patent publication US11241436B2, “Autophagy inducers for treatment of CNS conditions” (Northwestern University, priority 2017, dated 2022)

How the values were obtained:
Beclin 2-GASP1 binding = experiment: Coimmunoprecipitation of endogenous GASP1 with endogenous Beclin 2 from mouse brain lysates; assay type: in vivo; settings: injection to WT mice
From the text: Lysates in each group were pooled from 3 mice.
Based on this model, the effect of these inducers on the Beclin 2-GASP1 interaction in vitro and in mouse brain were subsequently examined.

WT mice = experiment: Analgesic tolerance test during chronic WIN treatment; assay type: in vivo, mouse; settings: WT mice, co-treatment with daily WIN for 14 d, compared with vehicle
Procedure: Briefly, mice were injected with WIN for 14 d, and analgesic tolerance was measured without WIN treatment on day 0, and after 1-h WIN treatment on day 1 and day 14.
There were no genotype differences either in basal pain sensitivity to infrared heat-generated pain (agonist-free, day 0) (FIG. 2C), or in analgesic effects of acute WIN treatment prior to chronic WIN administration (day 1) (FIG. 2D).

CB1R = experiment: Brain CB1R (CNR1) level by Western blot after chronic WIN; assay type: in vivo, mouse; settings: mice concurrently treated with daily WIN for 14 d
Procedure: (§1) To investigate whether restoration of CB1R signaling underlies the behavioral regulation by autophagy activation, the level and functionality of CB1R in mouse brain after co-administration of chronic cannabinoids and autophagy inducers were analyzed. […] To determine whether the increased level of CB1R represents CB1R re-sensitization in the brain, the agonist-induced phosphorylation of signaling kinases downstream of CB1R after chronic WIN exposure were analyzed.

CB1R signaling = CB1R signaling in brain (phosphorylation of MEK and JNK) after chronic WIN; assay type: in vivo, mouse; settings: repeated WIN dosage 14 d, then acute WIN 1 h
Procedure: WT mice were treated with either daily WIN or vehicle for 14 d, and then subject to an acute dosage of WIN 1 h prior to collection of brain samples.
as §1

HTT aggregates = experiment: Fluorescence imaging of HTT inclusions in HeLa cells; assay type: cell-based
From the text: Blue, DAPI. Results represent mean±s.e.m. Scale bar: 20 μm. Statistics compare each value to the one under the “-” condition. **, P<0.01; ***, P<0.001; NS, not significant, t test.
ML246 promotes the removal of intracellular aggregates formed by polyglutamine (polyQ)-expansion proteins. HeLa cell lines stably expressing tetracycline-repressible expanded polyQ-repeat protein HTT (huntingtin) was used as a model, HTT65Q and HTT103Q. In contrast to the HTT protein with the normal number of glutamine repeats (HTT25Q), HTT65Q and HTT103Q formed insoluble polyQ aggregates larger than 0.2-μm diameter, which can be detected by filter trap assay. […] Fluorescence imaging further confirmed that ML246 administration decreased the number of cells positive for HTT aggregates, which is also in an ATG7-dependent manner (FIG. S6B).
Accordingly, whether Rg2 affects the clearance of proteinaceous inclusions in vitro was next determined, using HeLa cell lines expressing tetracycline-repressible expanded polyglutamine (polyQ)-repeat protein HTT (huntingtin), HTT65Q and HTT103Q. Unlike the HTT protein with the normal number of glutamine repeats (HTT25Q), HTT65Q and HTT103Q formed insoluble polyQ aggregates larger than 0.2-μm diameter, which were detected by filter trap assays (FIG. 5A).

Aβ42 = experiment: Dot blot assay of Aβ42 in brain of 5XFAD mice; assay type: in vivo, mouse
Procedure: Total protein loading was labeled by Ponceau S. N=5. **, P<0.01, t test.
Total protein loading was labeled by Ponceau S. Triplicate experiments from 4-5 mice in each group were shown. Results represent mean±s.e.m. NS, not significant; *, P<0.05; **, P<0.01; ***, P<0.001, t test.
Total protein loading was labeled by Ponceau S. Triplicate experiments from 4 mice in each group were shown.
Dot blot assay. Snap frozen hemi-brain were homogenized in 800 μl phosphate-buffered saline (PBS; Sigma-Aldrich, D8537) with 1% Triton X-100 supplemented with halt proteinase inhibitor cocktail (ThermoFisher Scientific), and halt phosphatase inhibitor cocktail (ThermoFisher Scientific). Protein concentration was quantified using BCA Assay (Pierce). For Af342 dot blots, 10 mg/ml brain homogenates were extracted in guanidine buffer (5 M guanidine-HCl [GuHCl], 50 mM Tris HCl pH 8.0) overnight at room temperature. One μl of sample was spotted in triplicate on 0.2 μm nitrocellulose membrane, and dried for 1 h at 37° C. The membrane was stained with Ponceau S, and the dot blot signal on the membrane was detected by immunostaining with Aβ42 antibody (Invitrogen, 700254, 1:1000) and HRP-conjugated secondary antibody (Santa Cruz Biotechnology, sc2004, 1:2000). Aβ42 signals were normalized to the Ponceau S staining. To separate soluble and insoluble Aβ fractions, 10 mg/ml of the total homogenated brains were centrifuged at 14000 rpm, 4° C. for 30 min. The supernatant (soluble fraction) was used directly for dot blot assays. The pellet (insoluble fraction) was extracted in guanidine buffer overnight at room temperature, and used in dot blot analyses. […] One μl of each sample was spotted on nitrocellulose membrane for dot blot analysis.

amyloid plaques = experiment: Amyloid plaques stained by thioflavin S or Aβ42 antibody in brain of 5XFAD mice; assay type: in vivo, mouse
Procedure: Scale bar: 500 μm. Results represent mean±s.e.m. N=6-8. *, P<0.05; **, P<0.01, t test.
Immunofluorescence microscopy. Paraformaldehyde-fixed brain tissues were sectioned at 30 μm thickness. Free-floating sagittal sections were immunostained with 1% thioflavin S (Sigma-Aldrich, 230456) for 20 minutes. Additional sections were immunostained with Aβ (Invitrogen, 700254, 1:500) and Alexa Fluro 594 goat anti rabbit (ThermoFisher Scientific, Al 1012). Sections were mounted on slides with mounting medium containing DAPI (Vectashield) and then analyzed by fluorescence microscopy under the 10× objective.

5XFAD mice = experiment: Morris water maze test of 5XFAD mice; assay type: in vivo, mouse
Procedure: Escape latency and total distance traveled in visible platform test and hidden platform test are shown. N=10-11. Results represent mean±s.e.m. Two-way repeated measures ANOVA.
Escape latency and total distance traveled in visible platform test and hidden platform test are shown. Results represent mean±s.e.m. Statistics were analyzed by the IBM SPSS Statistics Tools comparing differences between 2 curves.
Morris water maze testing. For animal behavior, 6-month old mice were tested. The Morris water maze test consists of two sections: the visible platform testing and hidden platform testing. During the tests, mice were placed in the water tank filled with opaque water (maintained at 25° C.), with their heads facing toward the tank wall. In the visible platform section, a black platform extending 2 cm above the water level was used for these trials. For each trial, the platform was randomly positioned, and the mouse was placed in the tank at different start positions. The trial was stopped after the mouse found and climbed onto the platform, and the escape latency was recorded. […] Mice were tested for 4 days with eight trials per day. In the hidden platform section, a transparent platform underneath the water level was used instead of the black one during all trials, mice were tested with a fixed platform location over 5 days period with six trials per day, and they were allowed to search the platform in 60 s. In the tests, two parameters were evaluated: the trail duration (s) and distance to the platform (m).

[1] = Brain penetration / pharmacokinetics study; settings: for brain penetration: mouse, in vivo
[2] = 6-month old 5XFAD mice, ML246 5 mg/kg i.p. for 5 weeks

N=c1c2c(-c3ccccc3)c(-c3ccccc3)n(Cc3ccccc3)c2ncn1[C@H]1CC[C@H](O)CC1 [ML246]
binding between endogenous Beclin 2 and endogenous GASP1 (Beclin 2-GASP1 binding): dramatically decreased
pain-relieving effect of WIN on day 14 (WT mice): potently rescued
levels of CB1R (CNR1) in the brain (CB1R): higher levels
CB1R (CNR1) signaling: phosphorylation of MEK and JNK (CB1R signaling): rescued
number of cells positive for HTT aggregates (HTT aggregates; ML246): decreased
insoluble Aβ42 in brain (Aβ42; [2]): decreased levels
soluble Aβ42 in brain (Aβ42; [2]): decreased levels
effect on brain Aβ42 (Aβ42; autophagy-deficient 5XFAD Becn1+/− KO mice, ML246 5 weeks): abolished
amyloid plaques (amyloid plaques; 5XFAD mice, 5 weeks of ML246): trend of plaque reduction
performance during the hidden platform trials (5XFAD mice; 6-month old 5XFAD mice, ML246 daily for 5 weeks): improved the performance
brain penetration [1]: can pass the blood-brain barrier

CC(C)=CCC[C@](C)(O)[C@H]1CC[C@]2(C)[C@@H]1[C@H](O)C[C@@H]1[C@@]3(C)CC[C@H](O)C(C)(C)[C@@H]3[C@@H](O[C@@H]3O[C@H](CO)[C@@H](O)[C@H](O)[C@H]3O[C@@H]3O[C@@H](C)[C@H](O)[C@@H](O)[C@H]3O)C[C@]12C [Rg2, ginsenoside Rg2]
binding between endogenous Beclin 2 and endogenous GASP1 (Beclin 2-GASP1 binding): dramatically decreased
pain-relieving effect of WIN on day 14 (WT mice): potently rescued
levels of CB1R (CNR1) in the brain (CB1R): higher levels
CB1R (CNR1) signaling: phosphorylation of MEK and JNK (CB1R signaling): rescued
number of cells positive for HTT aggregates (HTT aggregates; Rg2): reduced
level of brain Aβ42 (Aβ42; Rg2 injection for 16 weeks in 2 month-old male 5XFAD mice vs vehicle (DMSO)): effectively decreased
number of amyloid plaques (amyloid plaques; Rg2-treated 5XFAD mice, thioflavin or Aβ42 antibody): significantly fewer number
escape latency and distance, hidden platform (5XFAD mice; 5XFAD mice, Rg2 for 4 months): significantly improved performance
escape latency or distance, visible platform (5XFAD mice; WT, vehicle-treated and Rg2-treated mice): no significant difference
brain level ([1]; 24 h postinjection): still detectable
time of peak brain level after injection ([1]; brain): 15 min
brain penetration [1]: able to enter the brain
